In US6720342B2, “Heterocyclic compounds and their preparation and use” (Novo Nordisk A/S, priority 1996, dated 2004):
Where a name gives a salt, the structure may show the parent alone.

How the values were obtained:
[1] = target: T1, muscarinic receptors (M1-site, pirenzepine sensitive site) (Rattus norvegicus, UniProt P08482); experiment: Inhibition of 3H-PRZ (pirenzepine, [N-methyl-3H]) binding to rat cerebral cortex membranes; details: 1.0 nM 3H-Pirenzepine, 60 min at 20° C.
T1 construct: Fresh cortex (0.1-1 g) from male Wistar rats (150-200 g) is homogenized; from tissue; host or cells: rat (male Wistar) cerebral cortex membranes
T1 sequence (P08482 1-460): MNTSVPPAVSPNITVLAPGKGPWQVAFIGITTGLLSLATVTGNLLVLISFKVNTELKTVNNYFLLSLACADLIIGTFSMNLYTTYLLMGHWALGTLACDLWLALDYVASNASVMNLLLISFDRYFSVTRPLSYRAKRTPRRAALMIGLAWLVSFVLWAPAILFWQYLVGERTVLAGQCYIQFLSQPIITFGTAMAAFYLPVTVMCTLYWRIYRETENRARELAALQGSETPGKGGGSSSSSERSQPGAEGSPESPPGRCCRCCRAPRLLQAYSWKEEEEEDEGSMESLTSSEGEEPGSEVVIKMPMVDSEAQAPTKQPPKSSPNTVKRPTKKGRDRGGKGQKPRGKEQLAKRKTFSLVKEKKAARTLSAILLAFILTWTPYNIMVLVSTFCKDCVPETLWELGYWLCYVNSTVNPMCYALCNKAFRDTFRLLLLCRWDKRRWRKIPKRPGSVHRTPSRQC
Protocol: Furthermore the pharmacological properties of the compounds of the invention can also be illustrated by determining their capability to inhibit ^3H-PRZ (pirenzepine, [N-methyl-^3H]) binding to rat cerebral cortex membranes. Pirenzepine binds selectively to subtype of muscarinic receptors. Historically the type is named the M1-site, whereas pirenzepine sensitive site would be more appropriate. Although selective for M1-sites pirenzepine also interact with M2-sites.
(§1) All preparations are performed at 0-4° C. unless otherwise indicated. Fresh cortex (0.1-1 g) from male Wistar rats (150-200 g) is homogenized for 5-10 s. in 10 ml 20 mM Hepes pH: 7.4, with an Ultra-Turrax homogenizer. The homogenizer is rinsed with 2×10 ml of buffer and the combined suspension centrifuged for 15 min at 40,000×g. The pellet is washed three times with buffer. In each step the pellet is homogenized as before in 3×10 ml of buffer and centrifuged for 10 min at 40,000×g.
The final pellet is homogenized in 20 mM Hepes pH: 7.4 (100 ml per g of original tissue) and used for binding assay. Aliquots of 0.5 ml is added 20 μl of test solution and 25 μl of ^3H-Pirenzepine (1.0 nM, final conc.), mixed and incubated for 60 min at 20° C. Non-specific binding is determined in triplicate using atropine (1 μg/ml, final conc.) as the test substance. After incubation samples are added 5 ml of ice-cold buffer and poured directly onto Whatman GF/C glass fiber filters under suction and immediately washed 2 times with 5 ml of ice-cold buffer. The amount of radioactivity on the filters are determined by conventional liquid scintillation counting. Specific binding is total binding minus non-specific binding.
Test substances are dissolved in 10 ml water, at a concentration of 0.22 mg/ml. 25-75% inhibition of specific binding must be obtained before calculation of IC50.
The test value will be given as IC50 (the concentration (nM) of the test substance which inhibits the specific binding of ^3H-PRZ by 50%).
(§2) IC50=(applied test substance concentration)×(Cx/Co−Cx)nM
(§3) where Co is specific binding in control assays and Cx is the specific binding in the test assay. (The calculations assume normal mass-action kinetics).

[2] = target: muscarinic acetylcholine receptors; experiment: Inhibition of specific binding of 3H-Oxotremorine-M (3H-Oxo) to rat cortex membranes; details: rat cortex homogenate, 1.0 nM 3H-Oxotremorine, 30 min at 25° C.
Description: The pharmacological properties of the compounds of the invention can be illustrated by determining their capability to inhibit the specific binding of ^3H-Oxotremorine-M (^3H-Oxo). Birdsdall N. J. M., Hulme E. C., and Burgen A. S. V. (1980). “The Character of Muscarinic Receptors in Different Regions of the Rat Brain”. Proc. Roy. Soc. London (Series B) 207, 1.
^3H-Oxo labels muscarinic receptor in the CNS (with a preference for agonist domains of the receptors). Three different sites are labelled by ^3H-Oxo. […] Using the present experimental conditions only the high and medium affinity sites are determined.
The inhibitory effects of compounds on ^3H-Oxo binding reflects the affinity for muscarinic acetylcholine receptors.
as §1, with “(150-250” for “(150-200”, “s” for “s.”, “10” for “2×10”, “min.” for “min”, “2×10” for “3×10”
The final pellet is homogenized in 20 mM Hepes pH: 7.4 (100 ml per g of original tissue) and used for binding assay. Aliquots of 0.5 ml is added 25 μl of test solution and 25 μl of ^3H-Oxotremorine (1.0 nM, final concentration) mixed and incubated for 30 min. at 25° C. Non-specific binding is determined in triplicate using arecoline (1 μg/ml, final concentration) as the test substance. After incubation samples are added 5 ml of ice-cold buffer and poured directly onto Whatman GF/C glass fiber filters under suction and immediately washed 2 times with 5 ml of ice-cold buffer. The amount of radioactivity on the filters are determined by conventional liquid scintillation counting. Specific binding is total binding minus non specific binding.
Test substances are dissolved in 10 ml water (if necessary heated on a steambath for less than 5 min.) at a concentration of 2.2 mg/ml. 25-75% inhibition of specific binding must be obtained before calculation of IC50.
The test value will be given as IC50 (the concentration (nM) of the test substance which inhibits the specific binding of ^3H-Oxo by 50%).
as §2, §3

| Compound | IC50 [1] | IC50 [2] |
| --- | --- | --- |
| CC#CCOc1nsnc1OC1CN2CCC1C2 (stereo not drawn) [Compound 11, Endo 3-(3-[2-butynyl-1-oxy]-1,2,5-thiadiazol-4-yloxy)-1-azabicyclo[2.2.1]heptane, oxalate] | 23 nM | 2.1 nM |
| CCC(C#Cc1cccc(OC)c1)Oc1nsnc1OC1CN2CCC1C2 (stereo not drawn) [Compound 19, Endo 3-(3-[1-(3-methoxyphenyl)-1-pentyn-3-yloxy]-1,2,5-thiadiazol-4-yloxy)-1-azabicyclo[2.2.1]heptane, oxalate] | 53 nM | 126 nM |
| C(#Cc1ccccc1)COc1nsnc1OC1CN2CCC1C2 (stereo not drawn) [Compound 5, Endo 3-(3-[3-phenyl-2-propynyl-1-oxy]-1,2,5-thiadiazol-4-yloxy)-1-azabicyclo[2.2.1]heptane, oxalate] | 14 nM | 10 nM |
| Clc1ccc(C#CCOc2nsnc2OC2CN3CCC2C3)cc1 (stereo not drawn) [Compound 18, Endo 3-(3-[3-(4-chlorophenyl)-2-propynyl-1-oxy]-1,2,5-thiadiazol-4-yloxy)-1-azabicyclo[2.2.1]heptane, oxalate] | 12 nM | 79 nM |
| Fc1ccc(COc2nsnc2OC2CN3CCC2C3)cc1 (stereo not drawn) [Compound 9, Endo 3-(3-[4-fluorobenzyloxy]-1,2,5-thiadiazol-4-yloxy)-1-azabicyclo-[2.2.1]heptane, oxalate] | 30 nM | 25 nM |
| C(#Cc1cccnc1)COc1nsnc1OC1CN2CCC1C2 (stereo not drawn) [Compound 23, Endo 3-(3-(3-pyridyl)-2-propyn-1-yloxy)-1,2,5-thiadiazol-4-yloxy)-1-azabicyclo[2.2.1]heptane, dioxalate] | 13 nM | 1.6 nM |
| C(CC1CC1)Oc1nsnc1OC1CN2CCC1C2 (stereo not drawn) [Compound 8, Endo 3-(3-[2-cyclopropylethyl-1-oxy]-1,2,5-thiadiazol-4-yloxy)-1-azabicyclo[2.2.1]heptane, oxalate] | 9.8 nM | 4.9 nM |
| COc1cccc(C#CCOc2nsnc2OC2CN3CCC2C3)c1 (stereo not drawn) [Compound 6, Endo 3-(3-[3-(3-methoxyphenyl)-2-propynyl-1-oxy]-1,2,5-thiadiazol-4-yloxy)-1-azabicyclo[2.2.1]heptane, oxalate] | 17 nM | – |
| FC(F)(F)Oc1ccc(COc2nsnc2OC2CN3CCC2C3)cc1 (stereo not drawn) [Compound 14, Endo 3-(3-[4-trifluoromethoxybenzyloxy]-1,2,5-thiadiazol-4-yloxy)-1-azabicyclo[2.2.1]heptane, oxalate] | 32 nM | 49 nM |
| COc1cccc(C#CC(C)Oc2nsnc2OC2CN3CCC2C3)c1 (stereo not drawn) [Compound 17, Endo 3-(3-[4-(3-methoxyphenyl)-3-butyn-2-yloxy]-1,2,5-thiadiazol-4-yloxy)-1-azabicyclo[2.2.1]heptane, oxalate] | 48 nM | 72 nM |
| CSCCOc1nsnc1OC1CN2CCC1C2 (stereo not drawn) [Compound 12, Endo 3-(3-methylthioethoxy-1,2,5-thiadiazol-4-yloxy)-1-azabicyclo-[2.2.1]heptane, oxalate] | 29 nM | 3.7 nM |
| CC=CCOc1nsnc1OC1CN2CCC1C2 (stereo not drawn) [Compound 10, Endo 3-(3-[2-butenyl-1-oxy]-1,2,5-thiadiazol-4-yloxy)-1-azabicyclo[2.2.1]heptane, oxalate] | 20 nM | 5.3 nM |
| FCCSc1nsnc1OC1CN2CCC1C2 (stereo not drawn) [Compound 34, Endo 3-(3-[2-fluoroethyl-1-thio]-1,2,5-thiadiazol-4-yloxy)-1-azabicyclo-[2.2.1]heptane, oxalate] | 31 nM | – |

Second part, the compound after the results:

| IC50 [1] | IC50 [2] | Compound |
| --- | --- | --- |
| 11 nM | – | FC(F)(F)c1cccc(C#CCOc2nsnc2OC2CN3CCC2C3)c1 (stereo not drawn) [Compound 20, Endo 3-(3-(3-(3-trifluoromethylphenyl)-2-propynyl-1-oxy)-1,2,5-thiadiazol-4-yloxy)-1-azabicyclo[2.2.1]heptane, oxalate] |
| 3.9 nM | 1.3 nM | C(#Cc1ccoc1)COc1nsnc1OC1CN2CCC1C2 (stereo not drawn) [Compound 26, Endo 3-(3-(3-(3-furyl)-2-propyn-1-yloxy)-1,2,5-thiadiazol-4-yloxy)-1-azabicyclo[2.2.1]heptane, oxalate] |
| 100 nM | 302 nM | CC(C#Cc1ccc(F)cc1)=CCOc1nsnc1OC1CN2CCC1C2 (stereo not drawn) [Compound 21, Endo (Z)-3-(3-(5-(4-fluorophenyl)-3-methyl-2-penten-4-yn-1-yloxy)-1,2,5-thiadiazol-4-yloxy)-1-azabicyclo[2.2.1]heptane] |
| 9.2 nM | – | C1CC(COc2nsnc2OC2CN3CCC2C3)C1 (stereo not drawn) [Compound 41, Endo 3-(3-cyclobutylmethyloxy-1,2,5-thiadiazol-4-yloxy)-1-azabicyclo-[2.2.1]heptane, oxalate] |
| 43 nM | 1.8 nM | FC(F)(F)COc1nsnc1OC1CN2CCC1C2 (stereo not drawn) [Compound 40, Endo 3-(3-[2,2,2-trifluoroethyl-1-oxy]-1,2,5-thiadiazol-4-yloxy)-1-azabicyclo[2.2.1]heptane, oxalate] |
| 4.7 nM | 1 nM | C(#Cc1ccsc1)COc1nsnc1OC1CN2CCC1C2 (stereo not drawn) [Compound 36, Endo 3-(3-[3-(3-thienyl)-2-propyn-1-yloxy]-1,2,5-thiadiazol-4-yloxy)-1-azabicyclo[2.2.1]heptane, oxalate] |
| 8.7 nM | 2.2 nM | C(#Cc1cccs1)COc1nsnc1O[C@H]1CN2CC[C@@H]1C2 [Compound 37, Endo 3-(3-[3-(2-thienyl)-2-propyn-1-yloxy]-1,2,5-thiadiazol-4-yloxy)-1-azabicyclo[2.2.1]heptane, oxalate] |
| 3.4 nM | – | FC(F)(F)CCCSc1nsnc1OC1CN2CCC1C2 (stereo not drawn) [Compound 30, Endo 3-(3-(4,4,4-trifluorobutylthio)-1,2,5-thiadiazol-4-yloxy)-1-azabicyclo-[2.2.1]heptane, oxalate] |
| – | 5.5 nM | Fc1cccc(C#CCOc2nsnc2OC2CN3CCC2C3)c1 (stereo not drawn) [Compound 28, Endo 3-(3-(3-(3-fluorophenyl)-2-propyn-1-yloxy)-1,2,5-thiadiazol-4-yloxy-1-azabicyclo[2.2.1]heptane, oxalate] |
| 23 nM | – | N#Cc1ccc(CSc2nsnc2OC2CN3CCC2C3)cc1 (stereo not drawn) [Compound 31, Endo 3-(3-[4-cyanobenzylthio]-1,2,5-thiadiazol-4-yloxy)-1-azabicyclo-[2.2.1]heptane, oxalate] |
